According to patent publication US10328092B2, “Methods and compositions for treatment of drug addiction” (The Royal Institution for the Advancement of Learning / …, priority 2015, dated 2019):
Where a name gives a salt, the structure may show the parent alone.

Experiments:
TNFα = TNFα mRNA / protein in ventral striatum (NAc) after in vivo treatment; parameters: species or system mouse; conditions: L741,626 i.p. 3 mg/kg 15 min before daily cocaine, 5 days; adult mice
Description: To determine the effect of in vivo cocaine exposure on TNFα levels in the ventral striatum, TNFα mRNA and protein levels were measured in mice given intraperitoneal injections of saline or cocaine. […] To understand the impact of TNFα on synaptic function in the NAc, AMPA/NMDA ratios were measured at glutamatergic synapses on MSNs in the NAc core. Alteration in NAc core AMPA receptors are involved in the expression of behavioral sensitization to psychostimulants (Kalives, 2009).
Mice (8-10 weeks) were perfused and their brains submerged overnight in 4% PFA, cryoprotected with 30% sucrose, and cut in 30 μm thick coronal slices using a cryostat. The sections were incubated for 4 hours with blocking solution (2% normal goat serum, 3% BSA, 0.2% Triton X-100 in PBS) before incubation overnight at 4 C with primary antibodies in blocking solution (rabbit anti-Iba1 antibody [019-19741, Wako; 1:800; RRID: AB_2566825], chicken anti-GFAP antibody [AB5541, Millipore; 1:500; RRID: AB_177521], rabbit anti-NeuN [ab104225, Abcam, 1:400; RRID: AB_10711153], and rabbit anti-TNFα antibody [ab6671, Abcam, 1:100; RRID: AB_305641] or mouse anti-TNFα antibody [ab1793, Abcam, 1:100; RRID: AB_302615]). Sections were washed (2×15 min with PBST [0.05% Tween20] and 1×15 min with PBS at RT) and incubated for 2 hrs at room temperature in secondary antibodies (anti-rabbit, anti-chicken, or anti-mouse IgG-conjugated Alexa Fluorochrome [Invitrogen; 1:400]). Sections were washed and briefly (<30 seconds) incubated with Hoechst 33342 [H1399, Molecular Probes; 1:10,000] in PBS. The stained sections were imaged using an Olympus FluoView FV1000 confocal microscope with Fluoview imaging software (FV10-ASW). Images of the ventral striatum (nucleus accumbens core and shell) were acquired with a 40× or 60× objective and stacks of 25-30 optical sections (1 μm per section) of depth were Z-projected into a single window and analysed using ImageJ software (NIH).
The number of Iba1+ microglia were manually counted from 212×212 μm (60× objectives) or 317×317 μm (40× objectives) images. TNFα intensity was measured using the mean grey value of the entire image while Iba1 intensity measurements were obtained using a thresholded area to highlight only the microglia. Cell body area (μm^2) was measured based on Iba1 staining and using the freehand selection tool. Additional analysis of microglia morphology in saline and cocaine treated mice was done using IMARIS software (Bitplane). […] The following parameters were analyzed for 40 microglia per group: total process length (sum of length of all processes), total process volume, process diameter and number of branch points and terminals. […]
After 40 cycles, the Ct values were determined.

D1-MSNs in the NAc core [1] = assay: AMPA/NMDA ratio on D1-MSNs after in vivo treatment; parameters: species or system mouse; conditions: L741,626 i.p. 3 mg/kg co-administered with daily cocaine over 5 days
Description: (§1) Repeated non-contingent administration of cocaine results in lower AMPA/NMDA ratios of excitatory inputs onto the NAc specifically on the D1-MSN subtype (Kim et al., 2011; Pascoli et al., 2012). To test whether the decrease in AMPA/NMDA ratios after repeated drug administration is due to the increase in TNFα expression, the AMPA/NMDA ratio was evaluated on D1 and D2 MSNs in the NAc core following cocaine or saline administration in WT and TNFα^−/− mice. […] This is consistent with the exocytosis of AMPARs observed with direct stimulation of D1Rs on MSNs (Mangiavacchi and Wolf, 2004). […] To test the hypothesis that potentiated D1-MSNs are more sensitive to TNFα, TNFα mice were treated with a single injection of cocaine and the effect of a low level of TNFα (10 ng/ml) on AMPA/NMDA ratios was evaluated. […] This treatment had no effect on D2-MSNs (FIG. 9B). To test whether cocaine-induced TNFα signaling would occlude further TNFα synaptic depression, wildtype animals were treated with cocaine for 5 days, and then treated striatel slices ex-vivo with TNFα (100 ng/ml). The AMPA/NMDA ratio on D1-MSNs (already reduced compared to saline treated animals; FIG. 5E) was not further reduced by treatment with TNFα (FIG. 5G).
Because depotentiation of MSNs reduced cocaine-induced behavioural sensitization (Pascoli et al., 2012), it was tested whether re-activation of microglia would depress NAc synapses and suppress sensitization. To do this, monophosphoryl lipid A (MPLA), a detoxified variant of LPS, was used (Casella and Mitchell, 2008). MPLA acts as a weak TLR4 agonist that is at least 100-fold less pyrogenic than LPS (Cluff, 2010) and is used in humans as an adjuvant for several vaccine formulations. […] It was verified that MPLA activates microglia in the striatum, by injecting 10 μg MPLA IP after 10 days withdrawal from cocaine. […] This is consistent with previous observations that MPLA acts as a microglia modulator (Michaud et al., 2013). […] It was next tested if MPLA treatment would depress synaptic strength in the NAc core. After 10 days of withdrawal, animals were injected with MPLA and evaluated 24 hours later for AMPA/NMDA ratios on D1-MSNs.
240 μm thick coronal slices containing the nucleus accumbens were prepared from brains of 8-9 week-old mice (with fluorescent D1-MSNs). After a 1 h recovery period, slices were placed in a submersion-type recording chamber and perfused (1.5-2 ml/min) at 30° C. with a bicarbonate-buffered artificial CSF saturated with 95% O2/5% CO2 and containing (in mM): 119 NaCl, 2.5 KCl, 1 NaH2PO4, 1.3 MgCl2, 2.5 CaCl2, 26.2 NaHCO3, 11 glucose, and 0.05 picrotoxin. Whole-cell voltage-clamp recordings from medium spiny neurons in the nucleus accumbens core were obtained under visual control using infrared-differential interference contrast microscopy. Whole-cell electrodes (2-4 MΩ) were filled with internal solution containing the following (in mM): 120 CsMeSO3, 15 CsCl, 8 NaCl, 0.2 EGTA, 10 HEPES, 2 Mg-ATP, 0.3 Na-GTP, 10 tetraethylammonium, and 5 QX-314 [5-N-(2,6-dimethylphenylcarbamoylmethyl)triethylammonium bromide] (308-310 mOsm). pH was adjusted to 7.3 with CsOH. Cells with series resistance above 25 MΩ or a 20% change over time were excluded. Synaptic currents were evoked using stainless-steel bipolar stimulating electrodes placed 100-150 μm rostral to the recorded neurons. EPSCs were acquired with an Axopatch 200B (Molecular Devices), filtered at 2 kHz, and digitized at 10 kHz. Acquisition and analysis was performed using pCLAMP 10.2 (Molecular Devices). To calculate AMPA/NMDA ratios, evoked synaptic responses were collected at −70 mV to measure AMPAR-mediated EPSCs and at +40 mV to measure NMDAR-mediated EPSCs. Typically, 20 responses were averaged to generate an average response. The peak AMPA response was used to calculate the AMPAR component and the amplitude at 40 ms post the AMPAR peak response was used to calculate the slower NMDA component at +40 mV to calculate the AMPA/NMDA ratio.

[2] = tested on: primary rat microglia cultures; assay: TNFα mRNA in primary rat microglia cultures; assay type: cell-based; conditions: agonist 1 μm, 3 h
Description: For tissue, total RNA from the ventral striatum was extracted and isolated by RNAqueous-4PCR total RNA isolation kit (Ambion, AM1914), according to manufacturer's instructions. For microglia and astrocyte cultures, total RNA was isolated by RNeasy kit (Qiagen, 74136). For all sample types, 0.5 μg of total RNA was used for cDNA synthesis with Quantitect Reverse Transcription Kit (Qiagen, 205313), and quantitative RT-PCR was performed with Fast SYBR-Green Master Mix (Applied Biosystems) detected by StepOne Plus RealTime PCR system (Applied Biosystems). The sequences of qPCR primers used for mRNA quantification in this study were obtained from Integrated DNA Technologies, and are as follows: mouse TNFα forward, […] (SEQ ID NO: 1) [200 nM]; mouse TNFα reverse, […] (SEQ ID NO: 2) [200 nM]; mouse GAPDH forward, […] (SEQ ID NO: 3) [300 nM]; mouse GAPDH reverse, […] (SEQ ID NO: 4) [300 nM]; rat TNFα forward, […] (SEQ ID NO: 1) [600 nM]; rat TNFα reverse, […] (SEQ ID NO: 5) [600 nM]; rat cyclophilin forward, […] (SEQ ID NO: 6) [500 nM]; rat cyclophilin reverse, […] (SEQ ID NO: 7) [500 nM]. After 40 cycles, the Ct values were determined. To normalize the samples, ΔCt between TNFα and GADPH or cyclophilin Ct values was calculated. The x-fold difference in expression between the different treatments was then determined by subtraction of the ΔCt values and termed ΔΔCt. Finally, the total change was calculated as 2-ΔΔct and the relative amount compared with control samples was deducted.
Mixed microglia-astrocyte primary cultures were prepared from the striatum of postnatal rats (day 0), essentially as described (Beattie et al., 2002). Briefly, tissue was dissociated by […], and cells were seeded in glia media (MEM containing 5% FBS, 1.5% high sucrose MEM and 0.1% glutamax) on culture flasks (Corning) coated with poly-D lysine (Sigma) and placed in a humidified incubator at 37 C with 5% CO2. Neurons were removed by mechanical disruption and the medium was changed at day 1, and every 5-7 days after. […]

D1-MSNs in the NAc core [3] = assay: AMPA/NMDA ratio, acute NAc slices treated ex-vivo with TNFα, D1-MSNs; assay type: cell-based, mouse; conditions: for mean AMPA/NMDA ratio, D1 MSNs: NAc core
Description: (§2) It has been previously shown that TNFα drives internalization of AMPARs on MSNs in the dorsal striatum (Lewitus et al., 2014). As repeated cocaine administration primarily affects direct-pathway MSNs, specific subpopulations of MSNs in the NAc core were tested for their response to TNFα. Acute NAc slices were incubated with TNFα (10 ng/ml or 100 ng/ml) and whole-cell recording were made for Drd1a-td Tomato (D1) positive and negative (D2) MSNs. […] A low dose of TNFα (10 ng/ml) had no significant effect on either cell type.
as §1
. After a 1 h recovery period, slices were placed in a submersion-type recording chamber and perfused (1.5-2 ml/min) at 30° C. with a bicarbonate-buffered artificial CSF saturated with 95% O2/5% CO2 and containing (in mM): 119 NaCl, 2.5 KCl, 1 NaH2PO4, 1.3 MgCl2, 2.5 CaCl2, 26.2 NaHCO3, 11 glucose, and 0.05 picrotoxin. Whole-cell voltage-clamp recordings from medium spiny neurons in the nucleus accumbens core were obtained under visual control using infrared-differential interference contrast microscopy. Whole-cell electrodes (2-4 MΩ) were filled with internal solution containing the following (in mM): 120 CsMeSO3, 15 CsCl, 8 NaCl, 0.2 EGTA, 10 HEPES, 2 Mg-ATP, 0.3 Na-GTP, 10 tetraethylammonium, and 5 QX-314 [5-N-(2,6-dimethylphenylcarbamoylmethyl)triethylammonium bromide] (308-310 mOsm). pH was adjusted to 7.3 with CsOH. Cells with series resistance above 25 MΩ or a 20% change over time were excluded. Synaptic currents were evoked using stainless-steel bipolar stimulating electrodes placed 100-150 μm rostral to the recorded neurons. […]

D2-MSNs in the NAc core = assay: AMPA/NMDA ratio, acute NAc slices treated ex-vivo with TNFα, D2-MSNs; assay type: cell-based, mouse; conditions: for mean AMPA/NMDA ratio, D2 MSNs: NAc core
Description: as §2, §1
. […] Synaptic currents were evoked using stainless-steel bipolar stimulating electrodes placed 100-150 μm rostral to the recorded neurons. […]

Compound: OC1(c2ccc(Cl)cc2)CCN(Cc2c[nH]c3ccccc23)CC1 [L741,626]
- TNFα mRNA in ventral striatum tissue (TNFα): significantly decreases
- AMPA/NMDA ratio on D1-MSNs vs cocaine alone (D1-MSNs in the NAc core [1]): increase

Compound: Oc1cc2c(cc1O)C(c1ccccc1)CNCC2 (centres unmarked) [SKF-38393]
- change in TNFα mRNA in primary rat microglia cultures [2]: had no effect

Compound: CCCN[C@H]1CCc2nc(N)sc2C1 [pramipexole, pramipexole dihydrochloride]
- change in TNFα mRNA in primary rat microglia cultures [2]: did not affect

Compound: Tumor necrosis factor alpha [TNFα]
- mean AMPA/NMDA ratio, D1-MSNs (D1-MSNs in the NAc core [3]; TNFα−/− mice treated 24 hours prior with cocaine, 10 ng/ml TNFα ex-vivo): 3.08±0.42
- mean AMPA/NMDA ratio, D1 MSNs (D1-MSNs in the NAc core [3]; slices treated with 10 ng/ml TNFα (printed D1(10 ug TNF))): 3.1±0.52
- mean AMPA/NMDA ratio, D1 MSNs (D1-MSNs in the NAc core [3]; slices treated with 100 ng/ml TNFα (printed D1(100 ug TNF))): 2.42±0.23
- mean AMPA/NMDA ratio, D1-MSNs (D1-MSNs in the NAc core [3]; wildtype mice after 5 daily cocaine injections, 100 ng/ml TNFα ex-vivo): 4.06±0.46
- effect on AMPA/NMDA ratios in D2-MSNs (D2-MSNs in the NAc core; TNFα-KO mice, cocaine 24 hours prior, 10 ng/ml TNFα ex-vivo): had no effect
- mean AMPA/NMDA ratio, D2 MSNs (D2-MSNs in the NAc core; slices treated with 10 ng/ml TNFα (printed D2(10 ug TNF))): 2.78±0.34
- mean AMPA/NMDA ratio, D2 MSNs (D2-MSNs in the NAc core; slices treated with 100 ng/ml TNFα (printed D2(100 ug TNF))): 2.02±0.18
